Results taken from patent publication US20170217931A1, “COMPOUNDS FOR USE IN ANTHELMINTHIC TREATMENT” (Bayer Animal Health GMBH, priority 2014, published 2017).
Where two headings read alike, the source gives them in different places.

Tests used:
Cooperia curticei = test: microbe, parasite or virus in culture; assay type: cell-based; details: 120 h, read-out: activity (larval mortality)
Description: (§1) To produce a suitable preparation of active compound, 10 mg of active compound are dissolved in 0.5 ml dimethyl sulfoxide, and the concentrate is diluted with “Ringer's solution” to the desired concentration.
Approximately 40 nematode larvae (Cooperia curticei) are transferred into a test tube containing the compound solution. After 5 days percentage of larval mortality is recorded. 100% efficacy means all larvae are killed; 0% efficacy means no larvae are killed.

[1] = Log P by HPLC on reversed phase columns, acidic range (EEC directive 79/831 Annex V.A8); assay type: physicochemical
Description: Measurement of Log P values was performed according to EEC directive 79/831 Annex V.A8 by HPLC (High Performance Liquid Chromatography) on reversed phase columns with the following methods: • [^a] Log P value is determined by measurement of LC-UV, in an acidic range, with 0.1% formic acid in water and acetonitrile as eluent (linear gradient from 10% acetonitrile to 95% acetonitrile). • [^b] Log P value is determined by measurement of LC-UV, in a neutral range, with 0.001 molar ammonium acetate solution in water and acetonitrile as eluent (linear gradient from 10% acetonitrile to 95% acetonitrile).
Calibration was done with straight-chain alkan-2-ones (with 3 to 16 carbon atoms) with known Log P values (measurement of Log P values using retention times with linear interpolation between successive alkanones). Lambda-max-values were determined using UV-spectra from 200 nm to 400 nm and the peak values of the chromatographic signals.

Haemonchus contortus = test: microbe, parasite or virus in culture; assay type: cell-based; details: 120 h, read-out: activity (larval mortality)
Description: as §1
Approximately 40 larvae of the red stomach worm (Haemonchus contortus) are transferred into a test tube containing compound solution. After 5 days percentage of larval mortality are recorded. 100% efficacy means all larvae are killed, 0% efficacy means no larvae are killed.

[2] = 4 ppm, after 5 days, Cooperia curticei larvae
[3] = 20 ppm, after 5 days, Cooperia curticei larvae
[4] = reversed phase HPLC columns; LC-UV, acidic range, 0.1% formic acid in water and acetonitrile; read-out: logP a) (HCOOH)
[5] = 20 ppm, after 5 days, Haemonchus contortus larvae

| Structure (SMILES) | mortality at 4 ppm (Cooperia curticei; Cooperia curticei) | mortality at 20 ppm (Cooperia curticei; Cooperia curticei) | chromatographic logP ([1]; LC-UV, acidic range, 0.1% formic acid in water and acetonitrile; read-out: logP a) (HCOOH)) | mortality at 4 ppm (Cooperia curticei; [2]) | mortality at 20 ppm (Cooperia curticei; [3]) | chromatographic logP [1, 4] | mortality at 20 ppm (Haemonchus contortus; [5]) | mortality at 20 ppm (Haemonchus contortus; Haemonchus contortus) | chromatographic logP [1] |
| --- | --- | --- | --- | --- | --- | --- | --- | --- | --- |
| O=C(NCC(F)(F)c1ncc(-c2ccoc2)cc1Cl)c1ccccc1C(F)(F)F [Example 1] | ≥ 90% | 100% | 3.21 | – | – | – | – | – | – |
| O=C(NCC(F)(F)c1ncc(-c2cnn(CC(F)(F)F)c2)cc1Cl)c1ccccc1C(F)(F)F [Example 15] | – | – | – | ≥ 90% | 100% | 3.1 | – | – | – |
| O=C(NCC(F)(F)c1ncc(-n2cc(C(F)(F)F)cn2)cc1Cl)c1cccnc1C(F)(F)F [Example 14] | – | – | – | ≥ 90% | 100% | 3.24 | 100% | – | – |
| Cc1occc1-c1cnc(C(F)(F)CNC(=O)c2ccccc2C(F)(F)F)c(Cl)c1 [Example 2] | – | – | – | ≥ 90% | 100% | 3.53 | 90% | – | – |
| O=C(NCC(F)(F)c1ncc(-n2cc(C(F)(F)F)cn2)cc1Cl)c1nccnc1C(F)(F)F [Example 10] | – | – | – | ≥ 90% | 100% | 3.43 | 100% | – | – |
| O=C(NCC(F)(F)c1ncc(-n2cc(Cl)cn2)cc1Cl)c1cccnc1C(F)(F)F [Example 18] | – | – | – | ≥ 90% | 100% | 3.07 | 100% | – | – |
| O=C(NCC(F)(F)c1ncc(-n2ccc(C(F)(F)F)n2)cc1Cl)c1cccnc1C(F)(F)F [Example 13] | – | – | – | ≥ 90% | 100% | 3.27 | – | – | – |
| O=C(NCC(F)(F)c1ncc(-n2cc(F)cn2)cc1Cl)c1ccccc1C(F)(F)F [Example 5] | – | – | – | ≥ 90% | 100% | 3.12 | 90% | – | – |
| O=C(NCC(F)(F)c1ncc(-n2ccc(C(F)(F)F)n2)cc1Cl)c1ccccc1C(F)(F)F [Example 11] | ≥ 90% | 100% | – | – | – | – | – | 100% | 3.63 |
| Cn1ccc(-c2cnc(C(F)(F)CNC(=O)c3ccccc3C(F)(F)F)c(Cl)c2)c1 [Example 4] | – | – | – | ≥ 90% | – | 3.22 | – | – | – |
| O=C(NCC(F)(F)c1ncc(-n2cc(C(F)(F)F)cn2)cc1Cl)c1ccccc1C(F)(F)F [Example 3, N-[2-[3-chloro-5-[4-(trifluoromethyl)pyrazol-1-yl]-2-pyridyl]-2,2-difluoro-ethyl]-2-(trifluoromethyl)benzamide] | ≥ 90% | 100% | – | – | – | – | – | 100% | 3.62 |
| O=C(NCC(F)(F)c1ncc(-n2cc(F)cn2)cc1Cl)c1nccnc1C(F)(F)F [Example 7] | – | – | – | – | – | 2.88 | – | – | – |
| Cn1c(C(F)(F)F)nn(-c2cnc(C(F)(F)CNC(=O)c3ccccc3C(F)(F)F)c(Cl)c2)c1=O [Example 6] | ≥ 90% | 100% | – | – | – | – | – | 100% | 3.32 |
| O=C(NCC(F)(F)c1ncc(-c2cnn(CC(F)(F)F)c2)cc1Cl)c1nccnc1C(F)(F)F [Example 17] | – | – | – | – | 100% | 2.85 | – | – | – |
| O=C(NCC(F)(F)c1ncc(-n2cc(F)cn2)cc1Cl)c1cccnc1C(F)(F)F [Example 9] | – | – | – | ≥ 90% | 100% | 2.7 | – | – | – |
| O=C(NCC(F)(F)c1ncc(-n2cc(Cl)cn2)cc1Cl)c1ccccc1C(F)(F)F [Example 12] | ≥ 90% | 100% | – | – | – | – | – | 100% | 3.5 |
| O=C(NCC(F)(F)c1ncc(-n2ccc(C(F)(F)F)n2)cc1Cl)c1nccnc1C(F)(F)F [Example 8] | ≥ 90% | 100% | – | – | – | – | – | – | 3.49 |
| O=C(NCC(F)(F)c1ncc(-c2cnn(CC(F)(F)F)c2)cc1Cl)c1cccnc1C(F)(F)F [Example 16] | – | – | – | – | 100% | 2.66 | – | – | – |
